For 114 molecules, IC50 results are on record in ChEMBL document CHEMBL2094269, “WEHI/Eskitis Trypanosoma b. brucei screening data”.

The structures appear in SMILES notation. Several values for one entry are separate records, joined by “and”; a condition that tells them apart may be missing. Identical values can stand only once.

The first experiment deals with Trypanosoma brucei brucei. Nature of the experiment: microbe, parasite or virus in culture. Format: functional, organism-based, STIB 795.
Conditions: not given
As usually defined, the IC50 is the concentration that inhibits the measured activity by half. `CCN1CCS/C1=C\C=C\C1=[N+](CC)CCS1`: the IC50 is 0.39 µM and 0.092 µM.
The same measure, in the same setting: as for `Cc1ccccc1-c1nnnn1C1CC(=O)C2OCC1O2` (configuration not stated), the figure is 4.75 µM; as for `CCN1/C(=C/C2=CC(=O)CC(C)(C)C2)Sc2ccccc21`, 5.54 µM.
`Cn1c(-c2ccco2)nn(C2CC(=O)C3OCC2O3)c1=S` (configuration not stated) registered an IC50 of 3.25 µM.
`Cc1c(C)n(CC(O)CNCc2ccccc2)c2ccccc12` (configuration not stated) returned an IC50 of 7.63 µM.
On the same count and under the same terms, as for `O=C1CC(n2nnn(C3CCCCC3)c2=S)C2COC1O2` (configuration not stated), the figure is 5.11 µM and 1.33 µM.
On the same count and under the same terms, the result for `CCN(CC)c1ccc(CNCCc2c(C)[nH]c3ccccc23)cc1` reads 3.4 µM.
The same measure, in the same setting: the result for `Cc1ccc(OCc2nn(C3CC(=O)C4OCC3O4)c(=S)n2C)cc1C` (configuration not stated) reads 4.62 µM; that for `COc1ccc(-c2nn(C3CC(=O)C4OCC3O4)c(=S)n2C)cc1OC` (configuration not stated), 5.08 µM.
`Cc1cc2cc3c(cc2c(C)n1)c1ccccc1n3C` registered an IC50 of 4.73 µM.
Take `CN(C)c1ccc(/C=C2\SC(=N)N(c3nccs3)C2=O)cc1`: the IC50 was 6.09 µM and 15.5 µM.

Staying with this experiment, now noted: Trypanosoma brucei, STIB 795.
The molecule `O=c1cc(-c2ccccc2)c2ccc(O)c(O)c2o1` yielded an IC50 of more than 10.4 µM.
On the same count and under the same terms, the result for `Cc1cc(N)n2ncc(-c3ccc(Cl)cc3)c2n1` reads more than 10.4 µM; that for `CC(C)COCc1ccc(O)c2ncccc12`, more than 10.4 µM; that for `CCn1c(C)cc(=S)c2ccccc21`, more than 10.4 µM.
As to `CCCCOc1ccc(C(=O)NNC(=S)NC(=O)CC)cc1`, the IC50 is more than 10.4 µM.
Molecule `Cc1ccc(Cl)cc1N1CCN(CCN)CC1` registered an IC50 of more than 10.4 µM.
On the same count and under the same terms, as for `Cc1ccc(C(=N)NOC(=O)c2ccco2)cc1`, the figure is more than 10.4 µM; as for `COc1ccc(Nc2nccc(-c3cccc(N)c3)n2)cc1`, more than 10.4 µM.
As for `Oc1ccc(CNc2ccccc2F)c2cccnc12`, the half-maximal inhibitory concentration (IC50) was more than 10.4 µM.
Same read-out and setting: as for `O=C1C(C2=C(O)c3ccccc3C2=O)=Nc2ccccc21`, the figure is more than 10.4 µM; as for `Cc1ccc(C(=N)NOC(=O)c2cccs2)cc1`, more than 10.4 µM; as for `COc1ccc(NC2=NC(=O)C(CO)(CO)S2)cc1`, more than 10.4 µM.
The molecule `Cc1occc1C(=O)O/N=C(\N)c1ccc(Cl)cc1` displayed an IC50 of more than 10.4 µM.
`Cc1ccc(C(CC(=O)c2ccco2)SCCO)cc1` (configuration not stated) registered an IC50 of more than 10.4 µM.
Same read-out and setting: the result for `CCC(=O)c1coc2ccc(O)cc12` reads more than 10.4 µM; that for `O=C(NO)c1ccccc1C(F)(F)F`, more than 10.4 µM.
Still for that read-out and setting: the result for `N=C(NOC(=O)c1cccc(Cl)c1)c1cccnc1` reads more than 10.4 µM.
The same measure, in the same setting: the result for `NC(CCCCc1ccccc1)c1cccc2ccccc12` (configuration not stated) reads more than 10.4 µM; that for `CN(C)CC(C(=O)c1ccccc1)c1ccccc1` (configuration not stated), more than 10.4 µM.
In turn, `O=NC1=C(c2c(O)[nH]c3ccccc23)CCCC1` showed an IC50 of more than 10.4 µM.
On the same count and under the same terms, as for `CC1CC(NC2CCCCC2)=Nc2ccccc2N1Cc1ccccc1` (configuration not stated), the figure is more than 10.4 µM.
The same measure, in the same setting: the result for `Cn1c(=O)cc(NNc2ccccc2)[nH]c1=O` reads more than 10.4 µM; that for `CCn1nc(-c2ccc(OC)cc2)nc2c(=O)n(C)c(=O)nc1-2`, more than 10.4 µM.
Same read-out and setting: the result for `COc1cccc(Nc2nc(N)c(C(=O)c3ccccc3F)s2)c1` reads more than 10.4 µM.
In turn, `O=C(CSc1nc2[nH]ncc2c(=O)n1-c1ccccc1)Nc1nccs1` showed an IC50 of more than 10.4 µM.
In the case of `CCOC(=O)COC1=C(c2ccccc2)C(=O)c2ccccc2C1=O`, the IC50 is more than 10.4 µM.
On the same count and under the same terms, the result for `Cn1nc(-c2cccs2)nc2c(=O)n(C)c(=O)nc1-2` reads more than 10.4 µM; that for `C=C1N(CCCCN2C(=C)C(C)(C)c3ccccc32)c2ccccc2C1(C)C`, more than 10.4 µM.
`Cc1ccccc1C(=O)/C(C#N)=N/Nc1c(C)n(C)n(-c2ccccc2)c1=O` had an IC50 of more than 10.4 µM.
`O=C(N/N=C/c1ccc(O)c2ncccc12)c1ccco1` came in with an IC50 of more than 10.4 µM.
Still for that read-out and setting: as for `O=c1c2ccccc2nc(SCc2cccnc2)n1Cc1ccco1`, the figure is more than 10.4 µM; as for `CC(=O)N1/C(=C/c2ccncc2)C(=O)c2ccccc21`, more than 10.4 µM.
Same read-out and setting: as for `CN(C)CCC1=Cc2cc(Cl)ccc2Sc2ccccc21`, the figure is more than 10.4 µM; as for `Cc1ccc2[nH]c3c(c2c1)CCCC3NCCCOc1ccc(F)cc1` (configuration not stated), more than 10.4 µM.
The same measure, in the same setting: the result for `CCN(CC)c1ccc(N)c(C)c1` reads more than 10.4 µM; that for `N=C1C=Cc2ccc(N)c3cccc1c23`, more than 10.4 µM.
In turn, `Cc1ncc(C)c2c1[nH]c1ccccc12` yielded an IC50 of more than 10.4 µM.
As for `CCc1no[c+](-c2ccccc2O)n1C`, the IC50 is more than 10.4 µM.
Regarding `Clc1nn2nnnc2c2ccccc12`, the IC50 was more than 10.4 µM.
Same read-out and setting: the result for `CC1CCc2nc3ccccc3c(N)c2C1` (configuration not stated) reads more than 10.4 µM; that for `CCc1c(C)nc(SCC#N)c(C#N)c1C`, more than 10.4 µM; that for `CC1=C(C)C(=O)C(c2cccs2)=C(C)C1=O`, more than 10.4 µM.
As to `Oc1cccc2ccc(Nc3ccccc3)nc12`, the IC50 is more than 10.4 µM.
Still for that read-out and setting: as for `NC(=S)N/N=C/c1sc(=O)[nH]c1Cl`, the figure is more than 10.4 µM; as for `O=C1/C(=N\c2ccccc2)Sc2ccccc21`, more than 10.4 µM.
In the case of `CNc1nsc(C(=O)c2ccc(C)cc2)c1N`, the IC50 was more than 10.4 µM.
On the same count and under the same terms, the result for `ON=C(/C=C/c1ccccc1)/C=C/c1ccccc1` reads more than 10.4 µM.
Same read-out and setting: the result for `CC1=C(C#N)C(C)C2=C(c3ccccc3C2=O)N1C` (configuration not stated) reads more than 10.4 µM.
The same measure, in the same setting: as for `CC(=O)c1ccc2c(c1)[nH]c1cc(C(C)=O)ccc12`, the figure is more than 10.4 µM.
With `Cc1ccccc1C(=O)O/N=C(\N)c1ccccn1`, the IC50 is more than 10.4 µM.
Take `Oc1ccc2ccccc2c1/N=N/c1nccs1`: the IC50 is more than 10.4 µM.
Molecule `O=C1C(=O)N(CO)c2ccc(Br)cc21` came in with an IC50 of more than 10.4 µM.
In the case of `CCn1c(-c2ccccc2Cl)nc2ccccc21`, the IC50 was more than 10.4 µM.
In turn, `N/C(=N\OC(=O)c1ccccc1F)c1ccccc1` displayed an IC50 of more than 10.4 µM.
Still for that read-out and setting: the result for `N/C(=N\OC(=O)c1ccc(F)cc1)c1cccnc1` reads more than 10.4 µM; that for `CCC(=O)NCCc1nc(-c2ccccc2)cs1`, more than 10.4 µM; that for `O=C(/C=C/n1c(=O)oc2ccccc21)c1ccccc1`, more than 10.4 µM.
Same read-out and setting: as for `ON=C1C=CC(=NNc2nncc3ccccc23)C=C1`, the figure is more than 10.4 µM; as for `O=C(/C=C/c1ccc(F)cc1)n1cnc2ccccc21`, more than 10.4 µM; as for `Cc1c(-c2cccc(O)c2)ccc2nc(N)nc(N)c12`, more than 10.4 µM.
The molecule `O=C(Nc1cc(Cl)cc(Cl)c1)c1ccccn1` registered an IC50 of more than 10.4 µM.
Same read-out and setting: as for `Cc1ccc(OCCn2c(N)nc3ccccc32)cc1`, the figure is more than 10.4 µM; as for `Cc1c(-c2ccc(O)c(O)c2)oc2ccccc2c1=O`, more than 10.4 µM; as for `Cc1ccc(O)c(C(=O)CC(=O)c2ccccc2C)c1`, more than 10.4 µM.
Still for that read-out and setting: as for `O=C1c2ccccc2C2=NS(=O)(=O)c3cccc1c32`, the figure is more than 10.4 µM; as for `O=C(CCN1CCC(c2ccccc2)C1)c1ccco1` (configuration not stated), more than 10.4 µM.
Same read-out and setting: the result for `CCN(CC)c1cc(C)nc(NCc2ccccc2)n1` reads more than 10.4 µM.
The molecule `COc1ccc(C(=O)O/N=C(\N)c2cccnc2)cc1` returned an IC50 of more than 10.4 µM.
Same read-out and setting: the result for `COc1ccc(/C(C)=N\Nc2nnc(C)c(O)n2)cc1` reads more than 10.4 µM; that for `COc1ccc(O)c(/C=N/NC(=O)c2nonc2C)c1`, more than 10.4 µM.
For `O=c1oc2ccccc2n1Cc1c(F)cccc1Cl`, the half-inhibitory concentration (IC50) was more than 10.4 µM.
Same read-out and setting: as for `COc1ccc(/N=N/c2ccc(O)c3ncccc23)cc1`, the figure is more than 10.4 µM; as for `CCCC(CCC)C(=O)Nc1ccc(O)cc1C(=O)O`, more than 10.4 µM.
On the same count and under the same terms, the result for `O=c1[nH]c(NCCCO)nc2sc3c(c12)CCCC3` reads more than 10.4 µM; that for `Cc1cc(=O)[nH]c(Nc2ccc(Br)cc2)n1`, more than 10.4 µM.
Still for that read-out and setting: the result for `C(=N\Nc1nc(-c2ccccc2)cs1)/c1ccncc1` reads more than 10.4 µM.
As for `Oc1ccccc1/C=N/Nc1ncc(Cl)cc1Cl`, the IC50 is more than 10.4 µM.
Still for that read-out and setting: as for `O=C(Cn1ncc(Cl)c(Cl)c1=O)c1ccccc1`, the figure is more than 10.4 µM; as for `Cc1cc(C)c(CCCc2c(C)nc(N)nc2N)cc1C`, more than 10.4 µM; as for `C=CCc1cccc(/C=N/NC(=O)c2nonc2C)c1O`, more than 10.4 µM.
For the molecule `Cc1ccccc1-c1nnnn1C1CC(=O)C2OCC1O2` (configuration not stated), the IC50 came out at 4.58 µM.
On the same count and under the same terms, the result for `c1ccc(Oc2cccc(-c3nc4ccccc4[nH]3)c2)cc1` reads more than 10.4 µM.
Still for that read-out and setting: the result for `Cc1cnc(NC(=O)c2ccc(Cl)c(Cl)c2)s1` reads more than 10.4 µM; that for `CCOC(=O)Cc1ccc(NCc2ccc(F)cc2)cc1`, more than 10.4 µM.
On the same count and under the same terms, as for `COc1ccc(/C(N)=N/OC(=O)c2cccc(F)c2)cc1`, the figure is more than 10.4 µM.
On to `CCC(=O)c1ccc(Oc2cc(=O)n(C)c(=O)n2C)cc1`, for which the IC50 was more than 10.4 µM.
On the same count and under the same terms, the result for `C/C(=N\NC(=O)c1cccc(Cl)c1)c1ccccc1O` reads more than 10.4 µM; that for `Oc1ccccc1/C=N\NC(=S)Nc1ccc(F)cc1`, more than 10.4 µM.
On the same count and under the same terms, the result for `CNC(c1ccccc1)C1c2cccc3cccc(c23)C1O` (configuration not stated) reads more than 10.4 µM; that for `Cc1ccc(C(=O)O/N=C(\N)c2cccnc2)cc1Cl`, more than 10.4 µM; that for `Cc1cccc(/C=N\Nc2nncc(-c3ccccc3)n2)n1`, more than 10.4 µM.
The same measure, in the same setting: the result for `Cc1ccc(Nc2nn3nnnc3c3ccccc23)c(C)c1` reads more than 10.4 µM; that for `Nc1ncc(CCc2cccc(-c3ccccc3)c2)c(N)n1`, more than 10.4 µM; that for `CC(C)=CCC1(C)C(=O)N(c2ccccc2)c2ccccc21` (configuration not stated), more than 10.4 µM.
The molecule `C=CCN1C(=O)/C(=N/NC(=S)SC)c2ccccc21` gave an IC50 of more than 10.4 µM.
Same read-out and setting: the result for `CCCCN(CCCC)CCC12CC3CC(CC(C3)C1)C2` reads more than 10.4 µM; that for `CC1=C/C(=N\OC(=O)c2ccccc2Cl)CC(C)(C)C1`, more than 10.4 µM.
The same measure, in the same setting: as for `CC(=O)c1nc2ccccc2n1CC(=O)c1ccc(C)cc1`, the figure is more than 10.4 µM.
Still for that read-out and setting: the result for `CCc1ccccc1Nc1cc(C)nc2c(OC)cccc12` reads more than 10.4 µM.
Turning to `CCCCC(O)(CCCC)C(=O)NNc1ccc(C)cc1`, the IC50 was more than 10.4 µM.
The molecule `COc1ccccc1NC(=O)c1cc2ccccc2cc1O` showed an IC50 of more than 10.4 µM.
On the same count and under the same terms, the result for `CC(C)(C)C(=O)NN=c1c2ccccc2[nH]c2ccccc12` reads more than 10.4 µM.
The same measure, in the same setting: the result for `CCN1/C(=C/C2=CC(=O)CC(C)(C)C2)Sc2ccccc21` reads 5.4 µM; that for `Cn1c(-c2ccco2)nn(C2CC(=O)C3OCC2O3)c1=S` (configuration not stated), 5.5 µM.
On the same count and under the same terms, as for `Cc1c(C)n(CC(O)CNCc2ccccc2)c2ccccc12` (configuration not stated), the figure is 5.49 µM.
With `CCN(CC)c1ccc(CNCCc2c(C)[nH]c3ccccc23)cc1`, inhibition was half-maximal at 5.01 µM (IC50).
As to `Cc1ccc(OCc2nn(C3CC(=O)C4OCC3O4)c(=S)n2C)cc1C` (configuration not stated), the IC50 was 4.31 µM.
Still for that read-out and setting: the result for `COc1ccc(-c2nn(C3CC(=O)C4OCC3O4)c(=S)n2C)cc1OC` (configuration not stated) reads 4.53 µM.
With `Cc1cc2cc3c(cc2c(C)n1)c1ccccc1n3C`, the IC50 is 5.19 µM.
Same read-out and setting: the result for `CCCCNc1ccc2cccc(O)c2n1` reads more than 10.4 µM.
In the case of `C=CCc1cccc(/C=N/NC(=O)c2cccs2)c1O`, the IC50 was more than 10.4 µM.
